Experiments:
YT cells = assay: STAT5 phosphorylation assay (YT cells); format: cell-based, human; details: [EC50 YT/EC50 CTLL-2 of sample]/[EC50 YT/EC50 CTLL-2 of reference] × 100%
Text: In this method, two cell lines were adopted, wherein mouse CTLL-2 cells were a cell line containing IL-2Rαβγ, and human YT cells were a cell line containing IL-2Rβγ, and rhIL-2 activated the JAK-STAT signal pathway by binding with IL-2R on the cell surface. […] The lower the percentage change of EC50 ratio of YT cells/CTLL-2 cells was, the better the effect of promoting the immune function of the samples was, and on the contrary, the better the effect of inhibiting the immune function was.
The specific process was as follows: the mouse CTLL-2 cells (purchased from American Type Culture Collection) and the human YT cells were cultured in their own media (CTLL-2 cell medium: RPMI 1640+10% FBS+400 IU/mL rhIL-2, 2 mM L-glutamine and 1 mM sodium pyruvate; and YT cell medium: RPMI 1640+10% FBS+1 mm Non-Essential Amino Acids Solution (purchased from Gibco, product catalog number 11140050)) to a sufficient amount at condition of 37° C. and 5% carbon dioxide, and starved for 4 hours before detection, and then the cell density was adjusted to be 1×10^6 cells/mL for later use.

[1] = tested on: mouse colon cancer CT26.WT; assay: Anti-tumor activity, CT26.WT homograft tumor model; format: in vivo; details: Balb/c mice
Protocol: (§1) A cell suspension of 2×10^5/0.1 mL/mouse CT26.WT (purchased from […], product catalog number CRL-2638) and a cell suspension of 4×10^5/0.1 mL/mouse H22 (purchased from CCTCC, product catalog number GD00091) were subcutaneously inoculated into right backs of the mice. […] During the experiment, weights and tumor volumes of the animals were measured 3 times every week, and administration modes and experimental results were shown in Table 4.

[2] = tested on: CD8^+ T cells and CD4^+ Treg cells; assay: Immune cell population in CT26.WT tumor tissue (flow cytometry); format: in vivo, mouse; details: for CD8^+ T cells/CD4^+ Treg / Percentage of CD4^+ Treg in leucocytes / Percentage of CD8^+ T cells in leucocytes: 5th day, 2.0 mg/kg IV single dosage; for proportions of CD4^+ Treg cells compared with Quanqi rhIL2 / proportions of CD8^+ T cells compared with Quanqi rhIL2 / proportions of CD8^+ T/CD4^+ Treg compared with Quanqi rhIL2: in words
Protocol: A cell suspension of 2×10^5/0.1 mL/mouse CT26.WT was subcutaneously inoculated into right backs of the mice. […] On the 5th day, tumor tissue samples of various groups were collected for flow cytometry detection of changes in cell populations of CD8^+ T cells and CD4^+ Treg cells.

mouse liver cancer H22 = assay: Anti-tumor activity, H22 homograft tumor model; format: in vivo; details: Balb/c mice
Protocol: as §1

[3] = mouse, in vivo, iv, 1 mg/kg
Protocol: The blood sample was placed at room temperature for 15 minutes and centrifuged at 6,800 g/min for 6 minutes to obtain serum. The plasma concentration in the serum was analyzed by the following method:
(1) Coating: 50 μL of 1 μg/mL working solution of Anti-IL-2 antibody (purchased from abcam, product catalog number: ab9618) was added into each well in a high-adsorption 96-well plate, and incubated at 2° C. to 8° C. overnight. (2) Washing: the liquid in the well was discarded, and the well was washed with 1 xPBST (0.05% Tween-20) for 3 times, according to 300 μL/well. (3) Sealing: a casein sealing solution (purchased from Thermo, product catalog number 37528) was added according to 200 μL/well, and allowed to stand at room temperature for 90 minutes. (4) Washing: the liquid in the well was discarded, and the well was washed with 1 xPBST for 3 times, according to 300 μL/well. […] (6) Washing: the liquid in the well was discarded, and the well was washed with 1×PBST for 3 times, according to 300 μL/well. (7) Primary antibody: 50 μL of 0.25 μg/mL working solution of IL-2 Monoclonal Antibody (BG5) and Biotin (purchased from Invitrogen, product catalog number M600B) was added into each well, and allowed to stand at room temperature for 60 minutes. (8) Washing: the liquid in the well was discarded, and the well was washed with 1×PBST for 3 times, according to 300 μL/well. (9) Secondary antibody: Pierce™ High Sensitivity Streptavidin-HRP (purchased from Thermo, product catalog number 21130) was diluted for 4,000 times with a casein sealing solution, and 50 μL was added into each well, and allowed to stand at room temperature for 60 minutes. (10) Washing: the liquid in the well was discarded, and the well was washed with 1×PBST for 4 times, according to 300 μL/well. […] (12) Stopping and reading: 2 M sulfuric acid stop solution was added 25 minutes later, and light absorption values at 450 nm and 650 nm were read on a microplate reader (purchased from Perkin Elmer, model EnSight).

IL-2Rαβγ = biological target: T1, IL-2Rαβγ (Homo sapiens, UniProt P01589+P14784+P31785); details: high-affinity complex IL-2Rαβγ; cited from earlier work
T1 sequence (P01589 22-272): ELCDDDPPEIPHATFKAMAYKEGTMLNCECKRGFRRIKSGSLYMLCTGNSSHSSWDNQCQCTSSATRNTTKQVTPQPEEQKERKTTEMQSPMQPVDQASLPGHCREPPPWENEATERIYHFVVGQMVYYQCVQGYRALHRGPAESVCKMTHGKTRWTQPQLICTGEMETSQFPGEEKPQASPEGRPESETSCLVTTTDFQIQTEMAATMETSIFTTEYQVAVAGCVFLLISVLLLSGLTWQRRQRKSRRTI
T1 sequence (P14784 27-551): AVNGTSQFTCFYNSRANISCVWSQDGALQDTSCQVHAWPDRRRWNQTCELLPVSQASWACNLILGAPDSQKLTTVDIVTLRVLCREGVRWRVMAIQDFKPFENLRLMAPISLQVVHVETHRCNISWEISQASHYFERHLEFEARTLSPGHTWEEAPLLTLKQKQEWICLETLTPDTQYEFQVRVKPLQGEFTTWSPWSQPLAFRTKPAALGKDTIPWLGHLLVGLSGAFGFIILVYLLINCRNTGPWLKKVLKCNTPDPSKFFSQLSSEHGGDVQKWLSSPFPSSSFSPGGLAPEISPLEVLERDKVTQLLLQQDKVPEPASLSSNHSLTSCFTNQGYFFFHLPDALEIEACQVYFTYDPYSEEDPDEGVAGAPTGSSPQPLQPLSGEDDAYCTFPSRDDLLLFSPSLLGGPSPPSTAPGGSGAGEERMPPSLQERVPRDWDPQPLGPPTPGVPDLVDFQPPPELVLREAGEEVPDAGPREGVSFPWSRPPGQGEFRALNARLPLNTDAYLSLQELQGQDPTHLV
T1 sequence (P31785 23-369): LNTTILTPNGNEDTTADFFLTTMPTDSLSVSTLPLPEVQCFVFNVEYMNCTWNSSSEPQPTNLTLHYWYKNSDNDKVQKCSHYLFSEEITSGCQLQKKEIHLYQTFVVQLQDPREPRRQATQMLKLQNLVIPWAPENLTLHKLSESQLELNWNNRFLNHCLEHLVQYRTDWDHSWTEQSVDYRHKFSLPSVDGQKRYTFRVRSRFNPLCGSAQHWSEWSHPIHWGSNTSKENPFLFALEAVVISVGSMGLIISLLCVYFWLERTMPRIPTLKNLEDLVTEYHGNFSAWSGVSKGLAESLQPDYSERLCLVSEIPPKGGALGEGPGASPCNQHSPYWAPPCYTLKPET

IL-2Rβγ = biological target: T2, IL-2Rβγ (Homo sapiens, UniProt P14784+P31785); details: moderate-affinity complex IL-2Rβγ; cited from earlier work
T2 sequence (P14784 27-551): T1 sequence (P14784 27-551)
T2 sequence (P31785 23-369): T1 sequence (P31785 23-369)

IL-2Rα = biological target: T3, IL-2Rα (Homo sapiens, UniProt P01589); details: low-affinity receptor IL-2Rα subunit; cited from earlier work
T3 sequence (P01589 22-272): T1 sequence (P01589 22-272)

[4] = biological target: IL-2Rαβγ on mouse CTLL-2 cells (mouse (CTLL-2 cells)) (UniProt P01590); assay: cell-based or functional assay
[5] = high dosage 5.0 mg/kg IV Q5D × 3
[6] = low dosage 0.7 mg/kg IV Q5D × 3

Sequence of IL-2Rαβγ on mouse CTLL-2 cells (mouse (CTLL-2 cells)) (P01590 22-268, chain 1 of 3): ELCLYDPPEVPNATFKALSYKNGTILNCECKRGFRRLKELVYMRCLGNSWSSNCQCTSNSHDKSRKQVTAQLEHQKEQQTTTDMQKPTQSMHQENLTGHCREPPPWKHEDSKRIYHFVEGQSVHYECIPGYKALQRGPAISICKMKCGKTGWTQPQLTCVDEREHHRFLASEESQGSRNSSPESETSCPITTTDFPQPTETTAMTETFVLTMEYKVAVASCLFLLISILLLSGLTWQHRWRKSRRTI
Sequence of IL-2Rαβγ on mouse CTLL-2 cells (mouse (CTLL-2 cells)) (P16297 27-539, chain 2 of 3, further chain): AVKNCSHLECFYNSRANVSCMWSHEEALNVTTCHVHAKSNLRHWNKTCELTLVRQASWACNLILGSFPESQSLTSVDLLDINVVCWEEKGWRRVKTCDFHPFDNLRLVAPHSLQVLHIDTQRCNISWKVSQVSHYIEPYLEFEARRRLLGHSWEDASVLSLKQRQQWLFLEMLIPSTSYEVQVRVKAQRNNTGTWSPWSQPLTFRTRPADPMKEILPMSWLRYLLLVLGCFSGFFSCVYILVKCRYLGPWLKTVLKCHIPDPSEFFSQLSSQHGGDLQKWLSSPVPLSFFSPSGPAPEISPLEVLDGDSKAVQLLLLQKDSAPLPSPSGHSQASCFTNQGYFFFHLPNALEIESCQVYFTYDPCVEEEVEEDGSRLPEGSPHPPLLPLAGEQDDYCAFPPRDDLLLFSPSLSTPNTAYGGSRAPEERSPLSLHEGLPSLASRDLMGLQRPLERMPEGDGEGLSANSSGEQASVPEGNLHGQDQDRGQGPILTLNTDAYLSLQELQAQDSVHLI
Sequence of IL-2Rαβγ on mouse CTLL-2 cells (mouse (CTLL-2 cells)) (P34902 23-369, chain 3 of 3, further chain): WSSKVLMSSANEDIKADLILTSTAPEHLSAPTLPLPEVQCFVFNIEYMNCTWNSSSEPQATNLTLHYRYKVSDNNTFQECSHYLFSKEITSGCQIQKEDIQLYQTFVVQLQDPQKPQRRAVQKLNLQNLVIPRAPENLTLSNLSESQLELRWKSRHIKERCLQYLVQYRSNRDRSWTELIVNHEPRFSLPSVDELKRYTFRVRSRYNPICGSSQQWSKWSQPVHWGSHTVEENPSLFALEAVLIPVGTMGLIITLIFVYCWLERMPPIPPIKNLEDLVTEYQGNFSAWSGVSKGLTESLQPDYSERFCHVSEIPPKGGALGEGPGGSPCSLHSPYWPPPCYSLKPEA

## 30 KD PEG-rhIL2-E61: rhIL-2 with unnatural amino acid NOPK at E61 site, coupled via oxime bond with 30 KD aminoxy PEG
YT cells
  Percentage change of EC50 ratio of YT/CTLL-2 cells of 30 KD PEG-rhIL2 sample: 89%

## 30 KD PEG-rhIL2-K35: rhIL-2 with unnatural amino acid NOPK at K35 site, coupled via oxime bond with 30 KD aminoxy PEG
YT cells
  Percentage change of EC50 ratio of YT/CTLL-2 cells of 30 KD PEG-rhIL2 sample: 53%

## 30 KD PEG-rhIL2-P65: rhIL-2 with unnatural amino acid NOPK at P65 site, coupled via oxime bond with 30 KD aminoxy PEG
YT cells
  Percentage change of EC50 ratio of YT/CTLL-2 cells of 30 KD PEG-rhIL2 sample: 91%

## 30 KD PEG-rhIL2-T41: rhIL-2 with unnatural amino acid NOPK at T41 site, coupled via oxime bond with 30 KD aminoxy PEG
YT cells
  Percentage change of EC50 ratio of YT/CTLL-2 cells of 30 KD PEG-rhIL2 sample: 43%
[1]; [5]
  Average value ± standard error of tumor weight: 0.32 g
  TGITW: 88%
[1]; [6]
  Average value ± standard error of tumor weight: 0.64 g
  TGITW: 77%
[2]
  CD8^+ T cells/CD4^+ Treg: 27.7
  Percentage of CD4^+ Treg in leucocytes: 1.3%
  Percentage of CD8^+ T cells in leucocytes: 36.0%
  proportions of CD4^+ Treg cells compared with Quanqi rhIL2: significantly decreased
  proportions of CD8^+ T cells compared with Quanqi rhIL2: significantly increased
  proportions of CD8^+ T/CD4^+ Treg compared with Quanqi rhIL2: significantly increased
Mouse liver cancer H22; [5]
  Average value ± standard error of tumor weight: 0.38 g
  TGITW: 80%
Mouse liver cancer H22; [6]
  Average value ± standard error of tumor weight: 0.69 g
  TGITW: 63%

## 30 KD PEG-rhIL2-Y45: rhIL-2 with unnatural amino acid NOPK at Y45 site, coupled via oxime bond with 30 KD aminoxy PEG
YT cells
  Percentage change of EC50 ratio of YT/CTLL-2 cells of 30 KD PEG-rhIL2 sample: 6%
[1]; [5]
  Average value ± standard error of tumor weight: 0.22 g
  TGITW: 92%
[1]; [6]
  Average value ± standard error of tumor weight: 0.93 g
  TGITW: 66%
[2]
  CD8^+ T cells/CD4^+ Treg: 23.2
  Percentage of CD4^+ Treg in leucocytes: 1.3%
  Percentage of CD8^+ T cells in leucocytes: 30.1%
  proportions of CD4^+ Treg cells compared with Quanqi rhIL2: significantly decreased
  proportions of CD8^+ T cells compared with Quanqi rhIL2: significantly increased
  proportions of CD8^+ T/CD4^+ Treg compared with Quanqi rhIL2: significantly increased
Mouse liver cancer H22; [5]
  Average value ± standard error of tumor weight: 0.4 g
  TGITW: 79%
Mouse liver cancer H22; [6]
  Average value ± standard error of tumor weight: 0.82 g
  TGITW: 57%
[3]
  AUC0-t: 168.141 µg·h/mL
  MRT0-t: 9.42 h
  Vz: 0.126 L/kg

## IL-2: mature human IL-2 with 133 amino acids, background description
IL-2Rαβγ
  Kd: 0.01 nM
IL-2Rβγ
  Kd: 1 nM
IL-2Rα
  Kd: 10 nM

## reference rhIL-2 (purchased from Beijing Solarbio Science & Technology Co., Ltd., catalog number: P00020) (from UniProt P60568 21-153) (ligand)
[4]
  STAT5 phosphorylation assay (CTLL-2 cells) EC50: 0.12 ng/mL

— US20250213703A1, “HUMAN INTERLEUKIN 2-POLYETHYLENE GLYCOL CONJUGATE AND USE THEREOF” (Novocodex Biopharmaceuticals Co., Ltd., priority 2021, published 2025)
